# Measurements taken from publication PMC9019904, “AD Informer Set: Chemical tools to facilitate Alzheimer's disease drug discovery” (Alzheimer's & Dementia : Translational Research & Clinical …, 2022).
# What was measured:
# [1] = tested on: BV2 (mouse microglia) cell line; experiment: pHrodo-myelin phagocytosis/cell viability high content imaging assay: phagocytosis signal; format: cell-based; details: BV2 cells, 10 μM
# Procedure, shortened: (§1)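 Mouse BV2 and human HMC3 microglia given pHrodo-myelin; phagocytosis and cell viability imaged together by high content imaging about 22 hours after myelin addition. Three measurements extracted, including intensity increase and decrease marking early and later apoptosis.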
# cellular system = details: published cellular activity at 10 μM; cited from earlier work
# [2] = Kinetic solubility in aqueous buffer pH 7.4 by total chemiluminescent nitrogen determination (Analiza); details: aqueous buffer, pH 7.4, aqueous buffer, kinetic from dmso stock
# [3] = tested on: BV2 (mouse microglia) cell line; experiment: pHrodo-myelin phagocytosis/cell viability high content imaging assay: viability (cell count, nuclear area, nuclear intensity); details: BV2 cells, 10 μM, cell count <70% control
# Procedure, shortened: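 Immortalized microglia are treated with compound (10 μM, single concentration) for 48 h, the final 20 h alongside pHrodo-myelin. Data are the mean of duplicates, reported as % of untreated control.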
# [4] = tested on: HMC3 (human microglia) cell line; experiment: pHrodo-myelin phagocytosis/cell viability high content imaging assay: phagocytosis signal; format: cell-based; details: HMC3 cells, 10 μM
# Procedure, shortened: as §1
SMILES,Stimulation of mouse microglial phagocytosis at 10 μM (>150% control) [1],Reported as cell active (<10 μM) (cellular system),solubility kinetic [2] [µM],Mouse microglial cytotoxicity at 10 μM (<70% control) [3],Inhibition of human microglial phagocytosis at 10 μM (<70% control) [4]
Nc1ncnc2c1nc(Br)n2[C@@H]1O[C@@H]2COP(=O)([O-])O[C@H]2[C@H]1O.[Na+] [8-Bromo-cAMP (sodium salt)],Y (The compound was found to stimulate phagocytosis (response threshold: >150% control) when murine immortalized microglial cells were dosed at 10 μM (Y: yes)),Y (Published data supports that the compound is active in a cellular system when dosed at 10 μM (Y/N)),166,,
Cc1c(COc2cc(OCc3cccc(C#N)c3)c(CN3C[C@H](O)C[C@@H]3C(=O)O)cc2Cl)cccc1-c1ccc2c(c1)OCCO2 [BMS-1166],,Y (Published data supports that the compound is active in a cellular system when dosed at 10 μM (Y/N)),2.1,,
O=C1CCc2cc(OCCCCc3nnnn3C3CCCCC3)ccc2N1 [Cilostazol (OPC 13013)],,Y (Published data supports that the compound is active in a cellular system when dosed at 10 μM (Y/N)),58.5,,
COc1ccc(CCN2CCN(CCCc3ccccc3)CC2)cc1OC.Cl.Cl [Cutamesine (SA 4503)],,Y (Published data supports that the compound is active in a cellular system when dosed at 10 μM (Y/N)),108,,
CN1c2ccc([N+](=O)[O-])cc2N=C(c2ccc(C(=O)O)cc2)c2cc3c(cc21)C(C)(C)CCC3(C)C [HX531],,Y (Published data supports that the compound is active in a cellular system when dosed at 10 μM (Y/N)),< 0.7,Y (The compound was found to be cytotoxic (cell count threshold: <70% control) when murine immortalized microglial cells were dosed at 10 μM (Y: yes)),
Cc1cc(C)nc(NS(=O)(=O)c2ccc(NC(=O)NC(=O)c3ccc(Cl)cc3Cl)cc2)n1 [LDN-193188],,Y (Published data supports that the compound is active in a cellular system when dosed at 10 μM (Y/N)),7.1,,
Cc1cc2c(cc1C1(c3ccc(C(=O)O)cn3)CC1)C(C)(C)CCC2(C)C [LG 100268],,Y (Published data supports that the compound is active in a cellular system when dosed at 10 μM (Y/N)),92.8,,
C[C@@H]1O[C@@H](O[C@H]2[C@H](Oc3cc(O)c4c(c3)O[C@H](c3ccc(O)cc3)CC4=O)O[C@H](CO)[C@@H](O)[C@@H]2O)[C@H](O)[C@H](O)[C@H]1O [Naringin],Y (The compound was found to stimulate phagocytosis (response threshold: >150% control) when murine immortalized microglial cells were dosed at 10 μM (Y: yes)),Y (Published data supports that the compound is active in a cellular system when dosed at 10 μM (Y/N)),,,Y (The compound was found to inhibit phagocytosis (response threshold: <70% control) when human immortalized microglial cells were dosed at 10 μM (Y: yes))
CCc1ccc(CCOc2ccc(CC3SC(=O)NC3=O)cc2)nc1 (stereo not shown) [Pioglitazone],,Y (Published data supports that the compound is active in a cellular system when dosed at 10 μM (Y/N)),3.2,,
CN(CCOc1ccc(CC2SC(=O)NC2=O)cc1)c1ccccn1 (stereo not shown) [Rosiglitazone],,Y (Published data supports that the compound is active in a cellular system when dosed at 10 μM (Y/N)),57,,
Nc1ncnc2c1nc(Sc1ccc(Cl)cc1)n2[C@@H]1O[C@@H]2COP(=O)([O-])O[C@H]2[C@H]1O.[Na+] [pCPT-cAMP],,Y (Published data supports that the compound is active in a cellular system when dosed at 10 μM (Y/N)),135,,
